Key:
Assay type in all cases: functional
Conditions in all cases: route intraperitoneal
Mus musculus [1] = experiment: Increase in total sleep time in C57BL mouse assessed during first hour of administration at 300 mg/kg, ip
Mus musculus [2] = experiment: Decrease in waking duration in C57BL mouse assessed during first hour of administration at 300 mg/kg, ip; set-up: scale not given: the % may be the effect or the level left
Mus musculus [3] = experiment: Increase in non-rapid eye movement sleep time in C57BL mouse assessed during first hour of administration at 300 mg/kg, ip

C[N+](C)(C)[C@H](Cc1c[nH]c2ccccc12)C(=O)[O-] [HYPAPHORINE]
Activity (Mus musculus [1]): 32%
Activity (Mus musculus [2]): 16%
Activity (Mus musculus [3]): 33%

Source: ChEMBL document CHEMBL1155052, “Hypaphorine, an indole alkaloid from Erythrina velutina, induced sleep on normal mice” (2008)
